Patent publication US20090318501A1, “Piperidine derivatives as renin inhibitors” (priority 2006, published 2009)

What was measured:
[1] = biological target: T1, plasma renin activity (PRA) (Homo sapiens, UniProt P00797); assay: In vitro plasma renin activity (PRA) in human plasma, angiotensin I radioimmunoassay; format: biochemical; settings: pooled human plasma, 37° C., 90 min, IC50 of plasma renin activity
T1 construct: 87.3% of pooled mixed-gender human plasma stabilized with EDTA; from tissue; host or cells: pooled mixed-gender human plasma (EDTA)
T1 sequence (P00797 67-406): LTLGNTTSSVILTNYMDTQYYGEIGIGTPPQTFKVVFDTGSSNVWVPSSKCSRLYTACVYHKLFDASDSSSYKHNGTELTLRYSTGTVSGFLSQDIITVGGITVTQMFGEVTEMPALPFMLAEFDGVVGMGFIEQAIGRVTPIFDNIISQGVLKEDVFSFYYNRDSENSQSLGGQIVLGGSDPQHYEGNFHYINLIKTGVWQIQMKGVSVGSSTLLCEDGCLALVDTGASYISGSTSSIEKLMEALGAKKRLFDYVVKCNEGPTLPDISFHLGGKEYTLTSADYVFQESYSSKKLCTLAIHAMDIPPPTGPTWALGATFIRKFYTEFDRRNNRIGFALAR
Experimental: For plasma batches with low PRA (less than 1 ng/ml/hr) ˜2 pM of recombinant human renin was added to achieve PRA of 3-4 ng/ml/hr. The cleavage of endogenous angiotensinogen in plasma was carried out at 37° C. for 90 min and the product angiotensin I was measured by competitive radioimmunoassay using DiaSorin PRA kit.

[2] = biological target: T2, trypsin-activated recombinant human renin (Homo sapiens, UniProt P00797); assay: In vitro renin inhibition, fluorescence of internally quenched peptide substrate; format: biochemical; settings: pH 7.0, rt
T2 sequence (P00797 67-406): T1 sequence (P00797 67-406)
Experimental: The sequence of this peptide corresponds to the sequence of human angiotensinogen. The following test protocol was used. All reactions were carried out in a flat bottom white opaque microtiter plate. A 4 μL aliquot of 400 μM renin substrate (DABCYL-γ-[…]) in 192 μL assay buffer (50 mM BES, 150 mM NaCl, 0.25 mg/mL bovine serum albumin, pH7.0) was added to 4 μL of test compound in DMSO at various concentrations ranging from 10 μM to 1 nM final concentrations. Next, 100 μL of trypsin-activated recombinant human renin (final enzyme concentration of 0.2-2 nM) in assay buffer was added, and the solution was mixed by pipetting. The increase in fluorescence at 495 nm (excitation at 340 nm) is measured for 60-360 minutes at rt using a Perkin-Elmer Fusion microplate reader. The slope of a linear portion of the plot of fluorescence-increase as a function of time was then determined, and the rate was used for calculating percent inhibition in relation to uninhibited control. […] (Wang G. T. et al. Anal. Biochem. 1993, 210, 351; Nakamura, N. et al. J. Biochem. (Tokyo) 1991, 109, 741; Murakami, K. et al. Anal Biochem. 1981, 110, 232).

[3] = test system: double transgenic rats engineered to express human renin and human angiotensinogen; assay: In vivo efficacy in double transgenic rats, telemetry blood pressure; set-up: species or system rat; settings: oral, 10 mg/kg, FIG. 3
Experimental: Double Transgenic Rat: The efficacy of the renin inhibitor 6a was evaluated in vivo in double transgenic rats engineered to express human renin and human angiotensinogen (Bohlender J, Fukamizu A, Lippoldt A, Nomura T, Dietz R, Menard J, Murakami K, Luft F C, Ganten D. High human renin hypertension in transgenic rats. Hypertension 1997, 29, 428-434).
(§1) Experiments were conducted in 6-week-old double transgenic rats (dTGRs). The model has been described in detail earlier. […] The human angiotensinogen construct made up the entire human angiotensinogen gene (5 exons and 4 introns), with 1.3 kB of 5′-flanking and 2.4 kB of 3′-flanking sequences. The rats were purchased from RCC Ltd (Füillinsdorf, Switzerland). Radio telemetry transmitters were surgically implanted at 4 weeks of age. The telemetry system provided 24-h recordings of systolic, mean, diastolic arterial pressure (SAP, MAP, DAP, respectively) and heart rate (HR). Beginning on day 42, animals were transferred to telemetry cages. A 24 h telemetry reading was obtained. Rats were then dosed orally on the following 4 consecutive days (days 43-46). The rats were monitored continuously and allowed free access to standard 0.3%-sodium rat chow and drinking water.

[4] = Plasma concentration in transgenic rats after oral administration; format: in vivo, rat; settings: 10 mg/kg, FIG. 2
Experimental: FIG. 2 is a plot showing mean plasma concentrations of compound 6a in transgenic rats over time following oral administration of 10 mg/kg of compound 6a.
as §1

Row | SMILES | IC50 [1] [nM] | IC50 [2] [nM] | effect on mean arterial blood pressure [3] | oral bioavailability and metabolic stability [4] | plasma concentration of compound following oral administration [4]
1 | CNC[C@H](C[C@H]1CCCOC1)NC(=O)N1CCC[C@@H]([C@@H](OCCNC(=O)OC)c2ccccc2)C1 [Compound 7, methyl 2-((R)-((R)-1-((S)-1-(methylamino)-3-((R)-tetrahydro-2H-pyran-3-yl)propan-2-ylcarbamoyl)piperidin-3-yl)(phenyl)methoxy)ethylcarbamate] | < 50 | < 20 | – | – | –
2 | CNC[C@H](C[C@H]1CCCOC1)NC(=O)N1CCC[C@@H]([C@@H](OCCNC(=O)OC)c2cccc(Cl)c2)C1 [Compound 6a, methyl 2-((R)-(3-chlorophenyl)((R)-1-((S)-1-(methylamino)-3-((R)-tetrahydro-2H-pyran-3-yl)propan-2-ylcarbamoyl)piperidin-3-yl)methoxy)ethylcarbamate] | < 1 | < 1 | significant effect in lowering blood pressures | excellent | remains relatively high over 24 h period
3 | CNC[C@H](C[C@@H]1CCCOC1)NC(=O)N1CCC[C@@H]([C@@H](OCCNC(=O)OC)c2cc(F)cc(F)c2)C1 [Compound 4b, methyl 2-((R)-(3,5-difluorophenyl)((R)-1-((S)-1-(methylamino)-3-((S)-tetrahydro-2H-pyran-3-yl)propan-2-ylcarbamoyl)piperidin-3-yl)methoxy)ethylcarbamate] | < 50 | < 10 | – | – | –
4 | CNC[C@H](C[C@H]1CCCOC1)NC(=O)N1CCC[C@@H]([C@@H](OCCNC(=O)OC)c2cc(F)cc(F)c2)C1 [Compound 4a, methyl 2-((R)-(3,5-difluorophenyl)((R)-1-((S)-1-(methylamino)-3-((R)-tetrahydro-2H-pyran-3-yl)propan-2-ylcarbamoyl)piperidin-3-yl)methoxy)ethylcarbamate] | < 10 | < 10 | – | – | –
5 | CNC[C@H](C[C@H]1CCCOC1)NC(=O)N1CCC[C@@H]([C@@H](OCCNC(=O)OC)c2cc(F)cc(Cl)c2)C1 [Compound 3a, methyl 2-((R)-(3-chloro-5-fluorophenyl)((R)-1-((S)-1-(methylamino)-3-((R)-tetrahydro-2H-pyran-3-yl)propan-2-ylcarbamoyl)piperidin-3-yl)methoxy)ethylcarbamate] | < 1 | < 1 | – | – | –
6 | CNC[C@H](CC1CCCOC1)NC(=O)N1CCC[C@@H]([C@@H](OCCNC(=O)OC)c2cccc(C)c2)C1 (stereo partly drawn) [Compound 1, methyl 2-((R)-((R)-1-((S)-1-(methylamino)-3-(tetrahydro-2H-pyran-3-yl)propan-2-ylcarbamoyl)piperidin-3-yl)(m-tolyl)methoxy)ethylcarbamate] | < 10 | < 10 | – | – | –
7 | CNC[C@H](C[C@H]1CCCOC1)NC(=O)N1CCC[C@@H]([C@@H](OCCNC(=O)OC)c2cc(Cl)ccc2C)C1 [Compound 10, methyl 2-((R)-(5-chloro-2-methylphenyl)((R)-1-((S)-1-(methylamino)-3-((R)-tetrahydro-2H-pyran-3-yl)propan-2-ylcarbamoyl)piperidin-3-yl)methoxy)-ethylcarbamate] | < 1 | < 10 | – | – | –
8 | CNC[C@H](C[C@H]1CCCOC1)NC(=O)N1CCC[C@@H]([C@@H](OCCNC(=O)OC)c2cccc(F)c2)C1 [Compound 2a, methyl 2-((R)-(3-fluorophenyl)((R)-1-((S)-1-(methylamino)-3-((R)-tetrahydro-2H-pyran-3-yl)propan-2-ylcarbamoyl)piperidin-3-yl)methoxy)ethylcarbamate] | < 10 | < 10 | – | – | –
9 | CCOC(=O)NCCO[C@@H](c1cc(F)cc(Cl)c1)[C@@H]1CCCN(C(=O)N[C@H](CNC)C[C@H]2CCCOC2)C1 [Compound 9, ethyl 2-((R)-(3-chloro-5-fluorophenyl)((R)-1-((S)-1-(methylamino)-3-((R)-tetrahydro-2H-pyran-3-yl)propan-2-ylcarbamoyl)piperidin-3-yl)methoxy)-ethylcarbamate] | < 50 | < 10 | – | – | –
10 | CNC[C@H](C[C@H]1CCCOC1)NC(=O)N1CCC[C@@H]([C@@H](OCCNC(=O)OC)c2ccc(F)c(Cl)c2)C1 [Compound 8, methyl 2-((R)-(3-chloro-4-fluorophenyl)((R)-1-((S)-1-(methylamino)-3-((R)-tetrahydro-2H-pyran-3-yl)propan-2-ylcarbamoyl)piperidin-3-yl)methoxy)-ethylcarbamate] | < 10 | < 10 | – | – | –
11 | CNC[C@H](C[C@@H]1CCCOC1)NC(=O)N1CCC[C@@H]([C@@H](OCCNC(=O)OC)c2cccc(F)c2)C1 [Compound 2b, methyl 2-((R)-(3-fluorophenyl)((R)-1-((S)-1-(methylamino)-3-((S)-tetrahydro-2H-pyran-3-yl)propan-2-ylcarbamoyl)piperidin-3-yl)methoxy)ethylcarbamate] | < 20 | < 10 | – | – | –
12 | CNC[C@H](C[C@@H]1CCCOC1)NC(=O)N1CCC[C@@H]([C@@H](OCCNC(=O)OC)c2cc(F)ccc2C)C1 [Compound 5b, methyl 2-((R)-(5-fluoro-2-methylphenyl)((R)-1-((S)-1-(methylamino)-3-((S)-tetrahydro-2H-pyran-3-yl)propan-2-ylcarbamoyl)piperidin-3-yl)methoxy)-ethylcarbamate] | < 50 | < 20 | – | – | –
13 | CNC[C@H](C[C@H]1CCCOC1)NC(=O)N1CCC[C@@H]([C@@H](OCCNC(=O)OC)c2cc(F)ccc2C)C1 [Compound 5a, methyl 2-((R)-(5-fluoro-2-methylphenyl)((R)-1-((S)-1-(methylamino)-3-((R)-tetrahydro-2H-pyran-3-yl)propan-2-ylcarbamoyl)piperidin-3-yl)methoxy)-ethylcarbamate] | < 10 | < 10 | – | – | –
14 | CNC[C@H](C[C@@H]1CCCOC1)NC(=O)N1CCC[C@@H]([C@@H](OCCNC(=O)OC)c2cccc(Cl)c2)C1 [Compound 6b, methyl 2-((R)-(3-chlorophenyl)((R)-1-((S)-1-(methylamino)-3-((S)-tetrahydro-2H-pyran-3-yl)propan-2-ylcarbamoyl)piperidin-3-yl)methoxy)ethylcarbamate] | < 10 | < 10 | – | – | –
15 | CNC[C@H](C[C@@H]1CCCOC1)NC(=O)N1CCC[C@@H]([C@@H](OCCNC(=O)OC)c2cc(F)cc(Cl)c2)C1 [Compound 3b, Methyl 2-((R)-(3-chloro-5-fluorophenyl)((R)-1-((S)-1-(methylamino)-3-((S)-tetrahydro-2H-pyran-3-yl)propan-2-ylcarbamoyl)piperidin-3-yl)methoxy)ethylcarbamate] | < 10 | < 10 | – | – | –
